{
  "source": "ChEMBL document CHEMBL4177694",
  "about": "“Discovery of the first low-shift positive allosteric modulators for the muscarinic M1 receptor” (Bioorg Med Chem Lett, 2017)",
  "key": {"[1]": {"molecular_target": "T1, Muscarinic acetylcholine receptor M1 (Homo sapiens) (UniProt P11229)", "T1 sequence (whole entry)": "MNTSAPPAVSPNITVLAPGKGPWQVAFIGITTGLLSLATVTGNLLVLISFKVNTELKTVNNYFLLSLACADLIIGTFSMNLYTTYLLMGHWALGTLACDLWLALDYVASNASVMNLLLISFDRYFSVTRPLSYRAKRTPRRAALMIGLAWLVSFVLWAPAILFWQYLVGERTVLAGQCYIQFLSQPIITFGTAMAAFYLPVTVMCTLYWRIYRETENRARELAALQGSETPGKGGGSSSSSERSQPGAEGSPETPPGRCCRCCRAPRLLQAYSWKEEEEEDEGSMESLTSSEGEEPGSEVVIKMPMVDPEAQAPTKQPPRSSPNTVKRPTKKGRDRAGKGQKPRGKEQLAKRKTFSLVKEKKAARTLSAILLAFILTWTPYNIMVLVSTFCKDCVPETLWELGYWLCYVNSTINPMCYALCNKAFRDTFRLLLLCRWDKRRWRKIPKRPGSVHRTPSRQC", "experiment": "Antagonist activity at M1 receptor (unknown origin)", "type": "functional"}, "[2]": {"molecular_target": "T1, Muscarinic acetylcholine receptor M1 (Homo sapiens)", "experiment": "Positive allosteric modulation of human wild type M1 receptor assessed as increase in acetylcholine-induced calcium flux by FLIPR assay relative to acetylcholine", "type": "functional"}, "[3]": {"molecular_target": "Muscarinic acetylcholine receptor M3 (Homo sapiens) (UniProt P20309)", "sequence (P20309 whole entry, looked up)": "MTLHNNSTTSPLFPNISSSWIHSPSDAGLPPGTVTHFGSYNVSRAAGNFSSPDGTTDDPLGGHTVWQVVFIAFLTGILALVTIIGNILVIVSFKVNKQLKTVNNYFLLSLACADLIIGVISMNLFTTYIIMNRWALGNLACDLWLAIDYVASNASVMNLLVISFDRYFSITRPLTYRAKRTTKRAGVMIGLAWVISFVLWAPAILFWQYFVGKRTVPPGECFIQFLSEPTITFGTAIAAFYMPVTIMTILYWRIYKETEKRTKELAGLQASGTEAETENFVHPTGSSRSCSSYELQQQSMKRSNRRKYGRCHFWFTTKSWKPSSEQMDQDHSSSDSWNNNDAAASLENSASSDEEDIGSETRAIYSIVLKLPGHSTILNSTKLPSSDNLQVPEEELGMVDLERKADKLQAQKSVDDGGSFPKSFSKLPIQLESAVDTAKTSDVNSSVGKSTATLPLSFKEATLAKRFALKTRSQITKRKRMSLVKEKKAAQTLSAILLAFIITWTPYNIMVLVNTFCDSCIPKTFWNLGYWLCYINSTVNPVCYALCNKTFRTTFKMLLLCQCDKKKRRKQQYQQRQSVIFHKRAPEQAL", "experiment": "Agonist activity at M3 receptor (unknown origin) up to 10 uM", "type": "functional"}, "[4]": {"molecular_target": "Muscarinic acetylcholine receptor M5 (Homo sapiens, UniProt P08912)", "sequence (P08912 whole entry)": "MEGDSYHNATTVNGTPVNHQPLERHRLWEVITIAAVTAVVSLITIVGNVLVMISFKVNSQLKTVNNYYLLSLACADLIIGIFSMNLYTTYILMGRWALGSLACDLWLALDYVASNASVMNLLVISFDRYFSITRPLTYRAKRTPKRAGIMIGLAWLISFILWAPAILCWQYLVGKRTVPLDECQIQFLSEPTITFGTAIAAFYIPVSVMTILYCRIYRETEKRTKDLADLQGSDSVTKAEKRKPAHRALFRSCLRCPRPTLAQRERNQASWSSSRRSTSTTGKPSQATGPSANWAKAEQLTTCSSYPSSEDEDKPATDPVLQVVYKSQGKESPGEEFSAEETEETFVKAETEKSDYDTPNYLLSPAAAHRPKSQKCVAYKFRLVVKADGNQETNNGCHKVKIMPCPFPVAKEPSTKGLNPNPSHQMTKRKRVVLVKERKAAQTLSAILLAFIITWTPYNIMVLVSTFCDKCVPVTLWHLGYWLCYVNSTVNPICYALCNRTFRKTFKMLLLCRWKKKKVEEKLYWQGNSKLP", "experiment": "Positive allosteric modulation of M5 receptor (unknown origin)", "type": "functional"}, "[5]": {"molecular_target": "Muscarinic acetylcholine receptor M4 (Homo sapiens) (UniProt P08173)", "sequence (P08173 whole entry)": "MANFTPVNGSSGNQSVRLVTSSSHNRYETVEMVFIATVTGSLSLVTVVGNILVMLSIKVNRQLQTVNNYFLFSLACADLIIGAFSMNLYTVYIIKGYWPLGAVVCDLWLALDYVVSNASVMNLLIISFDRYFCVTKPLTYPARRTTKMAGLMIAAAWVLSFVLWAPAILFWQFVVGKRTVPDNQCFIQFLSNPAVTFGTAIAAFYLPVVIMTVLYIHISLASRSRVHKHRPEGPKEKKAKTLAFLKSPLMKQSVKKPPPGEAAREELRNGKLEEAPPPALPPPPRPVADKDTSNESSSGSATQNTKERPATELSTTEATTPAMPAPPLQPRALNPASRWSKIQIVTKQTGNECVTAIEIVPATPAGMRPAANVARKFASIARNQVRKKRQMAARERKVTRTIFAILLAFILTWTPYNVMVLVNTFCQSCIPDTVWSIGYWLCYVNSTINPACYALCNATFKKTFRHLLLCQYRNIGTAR", "experiment": "Agonist activity at M4 receptor (unknown origin) up to 10 uM", "type": "functional"}, "[6]": {"molecular_target": "Muscarinic acetylcholine receptor M1 (Rattus norvegicus, UniProt P08482)", "sequence (P08482 whole entry)": "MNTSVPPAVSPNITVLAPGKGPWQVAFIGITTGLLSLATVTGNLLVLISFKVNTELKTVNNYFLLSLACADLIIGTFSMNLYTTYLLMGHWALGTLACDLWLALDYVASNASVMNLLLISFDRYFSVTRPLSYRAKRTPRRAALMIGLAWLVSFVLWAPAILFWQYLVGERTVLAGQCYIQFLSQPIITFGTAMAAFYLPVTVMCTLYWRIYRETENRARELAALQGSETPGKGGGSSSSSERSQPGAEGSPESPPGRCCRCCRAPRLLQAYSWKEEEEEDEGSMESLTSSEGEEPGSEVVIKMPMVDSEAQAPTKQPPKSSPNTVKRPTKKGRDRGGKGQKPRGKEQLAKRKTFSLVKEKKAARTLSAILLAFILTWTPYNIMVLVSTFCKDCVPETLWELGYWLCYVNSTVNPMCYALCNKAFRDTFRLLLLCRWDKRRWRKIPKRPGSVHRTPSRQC", "experiment": "Positive allosteric modulation of rat M1 receptor assessed as increase in acetylcholine-induced calcium flux by FLIPR assay", "type": "functional"}, "[7]": {"molecular_target": "T2, Muscarinic acetylcholine receptor M1 (Homo sapiens, UniProt P11229)", "T2 sequence (P11229 whole entry)": "T1 sequence (whole entry)", "experiment": "Positive allosteric modulation of human wild type M1 receptor assessed as increase in acetylcholine-induced calcium flux by FLIPR assay", "type": "functional"}, "[8]": {"molecular_target": "T1, Muscarinic acetylcholine receptor M1 (Homo sapiens)", "experiment": "Receptor occupancy at M1 receptor (unknown origin) at EC50"}, "[9]": {"molecular_target": "Muscarinic acetylcholine receptor M2 (Homo sapiens) (UniProt P08172)", "sequence (P08172 whole entry)": "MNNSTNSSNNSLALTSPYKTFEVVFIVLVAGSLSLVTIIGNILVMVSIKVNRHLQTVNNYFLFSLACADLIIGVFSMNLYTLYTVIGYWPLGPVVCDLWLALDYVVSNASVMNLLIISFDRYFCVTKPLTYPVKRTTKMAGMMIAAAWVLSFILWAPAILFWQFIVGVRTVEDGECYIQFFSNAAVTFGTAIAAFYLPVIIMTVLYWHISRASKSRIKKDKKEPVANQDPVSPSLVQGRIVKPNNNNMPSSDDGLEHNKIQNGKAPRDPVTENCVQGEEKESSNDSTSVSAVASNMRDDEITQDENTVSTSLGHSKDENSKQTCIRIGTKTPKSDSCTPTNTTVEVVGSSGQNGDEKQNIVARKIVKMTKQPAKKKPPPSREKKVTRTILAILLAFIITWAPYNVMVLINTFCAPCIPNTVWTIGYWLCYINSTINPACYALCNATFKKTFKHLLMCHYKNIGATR", "experiment": "Agonist activity at M2 receptor (unknown origin) up to 10 uM", "type": "functional"}, "[10]": {"molecular_target": "Muscarinic acetylcholine receptor M5 (Homo sapiens) (UniProt P08912)", "sequence (P08912 whole entry)": "as the sequence (P08912 whole entry) above", "experiment": "Positive allosteric modulation of M5 receptor (unknown origin) relative to control", "type": "functional"}, "[11]": {"molecular_target": "Muscarinic acetylcholine receptor M1 (Homo sapiens, UniProt P11229, W400A/Y179A)", "sequence (P11229 whole entry Y179A/W400A)": "as the sequence (P08482 whole entry) above, with V5A, Y179A, S254T, S309P, K320R, G337A, W400A, V413I counted along it", "experiment": "Positive allosteric modulation of M1 receptor Y179A/W400A mutant (unknown origin)"}, "[12]": {"molecular_target": "Muscarinic acetylcholine receptor M1 (Rattus norvegicus) (UniProt P08482)", "sequence (P08482 whole entry)": "as the sequence (P08482 whole entry) above", "experiment": "Positive allosteric modulation of rat M1 receptor assessed as increase in acetylcholine-induced calcium flux by FLIPR assay relative to acetylcholine", "type": "functional"}, "[13]": {"molecular_target": "Muscarinic acetylcholine receptor M2 (Homo sapiens) (UniProt P08172)", "experiment": "Positive allosteric modulation of M2 receptor (unknown origin)", "type": "functional"}, "[14]": {"tested_on": "Muscarinic acetylcholine receptor M1 (Homo sapiens), P11229 [Y179A,W400A]", "sequence (P11229 whole entry Y179A/W400A)": "as the sequence (P08482 whole entry) above, with V5A, Y179A, S254T, S309P, K320R, G337A, W400A, V413I counted along it", "experiment": "Positive allosteric modulation of M1 receptor Y179A/W400A mutant (unknown origin) relative to control"}, "[15]": {"molecular_target": "T1, Muscarinic acetylcholine receptor M1 (Homo sapiens)", "experiment": "Agonist activity at M1 receptor (unknown origin) up to 10 uM", "type": "functional"}, "[16]": {"molecular_target": "Muscarinic acetylcholine receptor M5 (Homo sapiens) (UniProt P08912)", "experiment": "Agonist activity at M5 receptor (unknown origin) up to 10 uM", "type": "functional"}},
  "note": "Calls of active or inactive are those of the source. The calls are words filed in the database; no cut-off is given here.",
  "data": [
    {"smiles": "CC(C)[C@@H]1N=C(c2ccccc2F)c2cc(Cl)ccc2NC1=S", "values": [
      {"measurement": "Kb", "setting": "[1]", "value": 0.61, "unit": "µM"},
      {"measurement": "Emax", "setting": "[2]", "value": 78, "unit": "%"},
      {"measurement": "Activity", "setting": "[3]", "value": "inactive"},
      {"measurement": "EC50", "setting": "[4]", "value": 1.3, "unit": "µM"},
      {"measurement": "Activity", "setting": "[5]", "value": "inactive"},
      {"measurement": "EC50", "setting": "[6]", "value": 0.218, "unit": "µM"},
      {"measurement": "EC50", "setting": "[7]", "value": 0.08, "unit": "µM"},
      {"measurement": "Occ", "setting": "[8]", "value": 33, "unit": "%"},
      {"measurement": "Activity", "setting": "[9]", "value": "inactive"},
      {"measurement": "Emax", "setting": "[10]", "value": 70, "unit": "%"},
      {"measurement": "EC50", "setting": "[11]", "value": 0.178, "unit": "µM"},
      {"measurement": "Emax", "setting": "[12]", "value": 88, "unit": "%"},
      {"measurement": "Activity", "setting": "[13]", "value": "inactive"},
      {"measurement": "Emax", "setting": "[14]", "value": 80, "unit": "%"},
      {"measurement": "Activity", "setting": "[15]", "value": "inactive"},
      {"measurement": "Activity", "setting": "[16]", "value": "inactive"}
    ]}
  ]
}
